#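 Following 48 hours of exposure in 96-well plates, responses at five concentrations were used to interpolate endpoints linearly. The concentration for full growth arrest is given as TGI.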
# How the values were obtained:
# Assay in all cases: NCI anticancer screen, dose series, 48 h
# NCI/ADR-RES ovarian = tested on: NCI/ADR-RES ovarian
# HCT-116 colon = tested on: HCT-116 colon
# SF-539 CNS = tested on: SF-539 CNS
# SK-MEL-28 melanoma = tested on: SK-MEL-28 melanoma
# OVCAR-4 ovarian = tested on: OVCAR-4 ovarian
# COLO 205 colon = tested on: COLO 205 colon
# SK-MEL-2 melanoma = tested on: SK-MEL-2 melanoma
# RXF 393 renal = tested on: RXF 393 renal
# MDA-N = tested on: MDA-N
# EKVX NSCLC = tested on: EKVX NSCLC
# CAKI-1 renal = tested on: CAKI-1 renal
# SK-OV-3 ovarian = tested on: SK-OV-3 ovarian
# TK-10 renal = tested on: TK-10 renal
# MDA-MB-435 = tested on: MDA-MB-435
# NCI-H522 lung = tested on: NCI-H522 lung
# OVCAR-5 ovarian = tested on: OVCAR-5 ovarian
# SNB-19 CNS = tested on: SNB-19 CNS
# UACC-257 melanoma = tested on: UACC-257 melanoma
# MDA-MB-231 breast = tested on: MDA-MB-231 breast
# HOP-92 NSCLC = tested on: HOP-92 NSCLC
# SR leukemia = tested on: SR leukemia
# UACC-62 melanoma = tested on: UACC-62 melanoma
# BT-549 breast = tested on: BT-549 breast
# T-47D breast = tested on: T-47D breast
# A498 renal = tested on: A498 renal
# OVCAR-8 ovarian = tested on: OVCAR-8 ovarian
# SF-295 CNS = tested on: SF-295 CNS
# IGROV1 ovarian = tested on: IGROV1 ovarian
# HT29 colon = tested on: HT29 colon
# ACHN renal = tested on: ACHN renal
# SK-MEL-5 melanoma = tested on: SK-MEL-5 melanoma
# HCT-15 colon = tested on: HCT-15 colon
# HS 578T breast = tested on: HS 578T breast
# U251 CNS = tested on: U251 CNS
# NCI-H23 lung = tested on: NCI-H23 lung
# OVCAR-3 ovarian = tested on: OVCAR-3 ovarian
# SN12C renal = tested on: SN12C renal
# HL-60(TB) leukemia = tested on: HL-60(TB) leukemia
# SF-268 CNS = tested on: SF-268 CNS
# LOX IMVI melanoma = tested on: LOX IMVI melanoma
# NCI-H460 lung = tested on: NCI-H460 lung
# M14 melanoma = tested on: M14 melanoma
# DU-145 prostate = tested on: DU-145 prostate
# MOLT-4 leukemia = tested on: MOLT-4 leukemia
# SW-620 colon = tested on: SW-620 colon
# 786-0 renal = tested on: 786-0 renal
# NCI-H226 lung = tested on: NCI-H226 lung
# A549 NSCLC = tested on: A549 NSCLC
# CCRF-CEM leukemia = tested on: CCRF-CEM leukemia
# SNB-75 CNS = tested on: SNB-75 CNS
# UO-31 renal = tested on: UO-31 renal
# PC-3 prostate = tested on: PC-3 prostate
# KM12 colon = tested on: KM12 colon
# MALME-3M melanoma = tested on: MALME-3M melanoma
# K-562 leukemia = tested on: K-562 leukemia
# HCC-2998 colon = tested on: HCC-2998 colon
# HOP-62 NSCLC = tested on: HOP-62 NSCLC
# MCF7 breast = tested on: MCF7 breast
# RPMI-8226 leukemia = tested on: RPMI-8226 leukemia
compound,measurement,setting,value
CCSC12OC3(CCCCCN3C1=O)C1C(=O)N(c3ccccc3)C(=O)C12 (stereo not drawn),TGI,NCI/ADR-RES ovarian,> 100 µM
same,TGI,HCT-116 colon,> 100 µM
same,TGI,SF-539 CNS,> 100 µM
same,TGI,SK-MEL-28 melanoma,> 100 µM
same,TGI,OVCAR-4 ovarian,> 100 µM
same,TGI,COLO 205 colon,> 100 µM
same,TGI,SK-MEL-2 melanoma,> 100 µM
same,TGI,RXF 393 renal,> 100 µM
same,TGI,MDA-N,> 100 µM
same,TGI,EKVX NSCLC,> 100 µM
same,TGI,CAKI-1 renal,> 100 µM
same,TGI,SK-OV-3 ovarian,> 100 µM
same,TGI,TK-10 renal,> 100 µM
same,TGI,MDA-MB-435,> 100 µM
same,TGI,NCI-H522 lung,> 100 µM
same,TGI,OVCAR-5 ovarian,> 100 µM
same,TGI,SNB-19 CNS,> 100 µM
same,TGI,UACC-257 melanoma,> 100 µM
same,TGI,MDA-MB-231 breast,> 100 µM
same,TGI,HOP-92 NSCLC,> 100 µM
same,TGI,SR leukemia,> 100 µM
same,TGI,UACC-62 melanoma,> 100 µM
same,TGI,BT-549 breast,> 100 µM
same,TGI,T-47D breast,> 100 µM
same,TGI,A498 renal,> 100 µM
same,TGI,OVCAR-8 ovarian,> 100 µM
same,TGI,SF-295 CNS,> 100 µM
same,TGI,IGROV1 ovarian,> 100 µM
same,TGI,HT29 colon,> 100 µM
same,TGI,ACHN renal,> 100 µM
same,TGI,SK-MEL-5 melanoma,> 100 µM
same,TGI,HCT-15 colon,> 100 µM
same,TGI,HS 578T breast,> 100 µM
same,TGI,U251 CNS,> 100 µM
same,TGI,NCI-H23 lung,> 100 µM
same,TGI,OVCAR-3 ovarian,> 100 µM
same,TGI,SN12C renal,> 100 µM
same,TGI,HL-60(TB) leukemia,> 100 µM
same,TGI,SF-268 CNS,> 100 µM
same,TGI,LOX IMVI melanoma,> 100 µM
same,TGI,NCI-H460 lung,> 100 µM
same,TGI,M14 melanoma,> 100 µM
same,TGI,DU-145 prostate,> 100 µM
same,TGI,MOLT-4 leukemia,> 100 µM
same,TGI,SW-620 colon,> 100 µM
same,TGI,786-0 renal,> 100 µM
same,TGI,NCI-H226 lung,> 100 µM
same,TGI,A549 NSCLC,> 100 µM
same,TGI,CCRF-CEM leukemia,> 100 µM
same,TGI,SNB-75 CNS,> 100 µM
same,TGI,UO-31 renal,> 100 µM
same,TGI,PC-3 prostate,> 100 µM
same,TGI,KM12 colon,> 100 µM
same,TGI,MALME-3M melanoma,> 100 µM
same,TGI,K-562 leukemia,> 100 µM
COC1C(O)C(C)OC(O[C@H]2CC[C@@]3(C)C(CC[C@@H]4[C@@H]3CC[C@]3(C)[C@@H](C(C)OC5OC(CO)C(O)C(O)C5O)CC[C@]43O)C2)C1O (stereo partly drawn),TGI,NCI/ADR-RES ovarian,> 25 µM
same,TGI,HCT-116 colon,> 25 µM
same,TGI,SF-539 CNS,> 25 µM
same,TGI,HCC-2998 colon,> 25 µM
same,TGI,SK-MEL-28 melanoma,> 25 µM
same,TGI,OVCAR-4 ovarian,> 25 µM
same,TGI,HOP-62 NSCLC,> 25 µM
same,TGI,SK-MEL-2 melanoma,> 25 µM
same,TGI,MDA-N,> 25 µM
same,TGI,EKVX NSCLC,> 25 µM
same,TGI,CAKI-1 renal,> 25 µM
same,TGI,SK-OV-3 ovarian,> 25 µM
same,TGI,TK-10 renal,> 25 µM
same,TGI,MDA-MB-435,> 25 µM
same,TGI,NCI-H522 lung,> 25 µM
same,TGI,OVCAR-5 ovarian,> 25 µM
same,TGI,SNB-19 CNS,> 25 µM
same,TGI,UACC-257 melanoma,> 25 µM
same,TGI,MDA-MB-231 breast,> 25 µM
same,TGI,HOP-92 NSCLC,> 25 µM
same,TGI,SR leukemia,> 25 µM
same,TGI,MCF7 breast,> 25 µM
same,TGI,UACC-62 melanoma,> 25 µM
same,TGI,A498 renal,> 25 µM
same,TGI,OVCAR-8 ovarian,> 25 µM
same,TGI,SF-295 CNS,> 25 µM
same,TGI,IGROV1 ovarian,> 25 µM
same,TGI,HT29 colon,> 25 µM
same,TGI,ACHN renal,> 25 µM
same,TGI,SK-MEL-5 melanoma,> 25 µM
same,TGI,HCT-15 colon,> 25 µM
same,TGI,HS 578T breast,> 25 µM
same,TGI,U251 CNS,> 25 µM
same,TGI,NCI-H23 lung,> 25 µM
same,TGI,OVCAR-3 ovarian,> 25 µM
same,TGI,SN12C renal,> 25 µM
same,TGI,HL-60(TB) leukemia,> 25 µM
same,TGI,SF-268 CNS,> 25 µM
same,TGI,LOX IMVI melanoma,> 25 µM
same,TGI,NCI-H460 lung,> 25 µM
same,TGI,RPMI-8226 leukemia,> 25 µM
same,TGI,M14 melanoma,> 25 µM
same,TGI,MOLT-4 leukemia,> 25 µM
same,TGI,SW-620 colon,> 25 µM
same,TGI,786-0 renal,> 25 µM
same,TGI,NCI-H226 lung,> 25 µM
same,TGI,A549 NSCLC,> 25 µM
same,TGI,CCRF-CEM leukemia,> 25 µM
same,TGI,SNB-75 CNS,> 25 µM
same,TGI,UO-31 renal,> 25 µM
same,TGI,PC-3 prostate,> 25 µM
same,TGI,KM12 colon,> 25 µM
same,TGI,K-562 leukemia,> 25 µM

# Reference: PubChem BioAssay (NCI)
